From patent publication US20060025390A1, “Treatment of hormone allergy and related symptoms and disorders” (priority 2004, published 2006)

Legend:
[1] = system: serum IgG anti-estrogen antibodies; assay: Competition ELISA: absorption of serum IgG anti-estrogen with specific and non-specific antigens; format: binding, human; conditions: for IgG level after absorption: absorption with 250 μg/mL, optical density 405 nm
Procedure: (§1) For this, microtiter plates were coated with hormones and blocked by the addition of 2% BSA in PBST. 100 μl of serum diluent buffer was added to all wells. […] After 60 minutes incubation 100 μl serum anti-estrogen or anti-progesterone was added to all wells. […] Results were calculated as percentage of inhibition in antigen-antibody reaction.
(§2) To examine whether antibodies to estrogen or progesterone are specific or cross-reactive, we performed competition ELISA by adding specific and non-specific antigens in liquid phase and examined prevention of serum antibody binding to the antigen in solid phase. […] For IgE anti-estrogen, this inhibition by estrogen-BSA was between 54-62%, and with progesterone-BSA, from 37-43%. […] This cross-reaction between estrogen and progesterone antibodies may be due to structural similarities between these two hormones.

[2] = system: serum IgE anti-17-α-hydroxyprogesterone antibodies; assay: ELISA binding of IgE 17-α-hydroxyprogesterone antibodies to different hormones in solid phase; set-up: species or system human; conditions: for IgE binding (optical density): hormone in solid phase, 405 nm; for IgE % reaction: relative to 17-α-hydroxyprogesterone = 100
Procedure: (§3) The ELISA inhibition method was used to determine specificity and cross-reactivity between different hormones and to ensure the degree of human IgG, IgM and IgE estrogen or progesterone binding to estrogen or progesterone in solid phase. […] 100 μl of sera from three different patients with high IgG, IgM or IgE antibodies against 17-α-hydroxyprogesterone was added to all wells. After shaking and incubation for 1 hr at room temperature, addition of enzyme labeled anti-human IgG, IgM or IgE, repeat of incubation, washing, and addition of substrate, color development was measured at 405 nm. Results were calculated as percentage of anti-17-α-hydroxyprogesterone binding to 17-α-hydroxyprogesterone and other hormones. Also, anti-estrogen binding to estrogen and other hormones in solid phase by progesterone in liquid phase was performed and calculated in a similar manner.
(§4) Human sera containing 17-α-hydroxyprogesterone IgG-, IgM- and IgE-binding antibodies were reacted against progesterone, estrogen, hydrocortisone and cholesterol. In comparison to 100% binding of anti-17-α-hydroxyprogesterone-binding to 17-α-hydroxyprogesterone, the IgG anti-17-α-hydroxyprogesterone-binding to progesterone, estrogen, hydrocortisone and cholesterol was 69-77%, 25-30%, 39-53%, and less than 10% respectively (Table 4). The % binding of serum IgM and IgE anti-17-α-hydroxyprogesterone to 17-1-hydroxyprogesterone, progesterone, estrogen, hydrocortisone and cholesterol was similar to the binding of IgG. This binding of anti-17-α-hydroxyprogesterone to progesterone was the highest, followed by hydrocortisone, then estrogen, to almost no binding with cholesterol. Similar to this, human sera with IgG, IgM and IgE binding antibodies against estrogen were reacted with progesterone, 17-α-hydroxyprogesterone, hydrocortisone and cholesterol, in the presence of estrogen.

[3] = system: serum IgE anti-estrogen antibodies; assay: Competition ELISA: absorption of serum IgE anti-estrogen with specific and non-specific antigens; format: binding, human; conditions: for IgE level after absorption: absorption with 250 μg/mL, optical density 405 nm
Procedure: as §1, §2

[4] = system: serum IgG anti-estrogen antibodies; assay: ELISA binding of IgG estrogen antibodies to different hormones in solid phase; set-up: species or system human; conditions: for IgG binding (optical density): hormone in solid phase, 405 nm; for IgG % reaction: relative to estrogen = 100
Procedure: as §3, §4

[5] = system: serum IgM anti-estrogen antibodies; assay: ELISA binding of IgM estrogen antibodies to different hormones in solid phase; set-up: species or system human; conditions: for IgM binding (optical density): hormone in solid phase, 405 nm; for IgM % reaction: relative to estrogen = 100
Procedure: as §3, §4

[6] = system: patients experiencing hormone allergy symptoms; assay: Clinical responses of hormone allergy symptoms to intradermal dilute progesterone (or estrogen); format: in vivo, human; conditions: 0.4 mg intradermally
From the text: Patients experiencing several hormone allergy symptoms experienced relief when administered dilute doses of progesterone either sublingually or intradermally.
The symptoms measured were irritation or pain in the neck, nose, eyes, throat, ear, skin, back, hips, upper extremities and lower extremities, headache, and shortness of breath. […]
Patients were designated as responding patients in Table 1 if they experienced any relief of the indicated symptom. Patients were also asked to estimate the amount of improvement in the symptom, an average of which is
In Table 2 the probability that positive results (i.e. patients responding to treatment) were due to random effects was calculated using standard statistical analysis of patient tests. It was assumed that if the treatment has no effect, there is a 50% chance that a patient will indicate a positive response and a 50% chance that a patient will indicate a negative response. From this assumption, coupled with the actual data, one may calculate the probability that positive responses are due to an actual effect of the treatment and not simply random effects. In general, results with a less than 1% chance of being random are considered highly significant. Results with a less than 5% chance of being random are normally conclusively labeled as nonrandom. Thus, the results observed for most of the symptoms in Table 2 are highly significant, with only the results for ear irritation and pain falling merely in the nonrandom category.
Hormone samples may be prepared in any way suitable for the intended administration route. For administration through intradermal injection, samples may be prepared as they were in the studies of Examples 2 and 3. Specifically, the progesterone was formulated from commercially available injectable progesterone. Each ml of the final formulation contained […] of progesterone and 10% benzyl alcohol as a preservative in sesame oil. 0.1 ml was administered per patient intradermally. Estrogen samples were similarly prepared.

[7] = system: serum IgG anti-17-α-hydroxyprogesterone antibodies; assay: ELISA binding of IgG 17-α-hydroxyprogesterone antibodies to different hormones in solid phase; set-up: species or system human; conditions: for IgG binding (optical density): hormone in solid phase, 405 nm; for IgG % reaction: relative to 17-α-hydroxyprogesterone = 100
Procedure: as §3, §4

[8] = system: serum IgM anti-17-α-hydroxyprogesterone antibodies; assay: ELISA binding of IgM 17-α-hydroxyprogesterone antibodies to different hormones in solid phase; set-up: species or system human; conditions: for IgM binding (optical density): hormone in solid phase, 405 nm; for IgM % reaction: relative to 17-α-hydroxyprogesterone = 100
Procedure: as §3, §4

[9] = system: serum IgE anti-estrogen antibodies; assay: ELISA binding of IgE estrogen antibodies to different hormones in solid phase; set-up: species or system human; conditions: for IgE binding (optical density): hormone in solid phase, 405 nm; for IgE % reaction: relative to estrogen = 100
Procedure: as §3, §4

[10] = antigen in liquid phase, over the three sera
[11] = relative to estrogen, over three sera

estrogen
inhibition of anti-estrogen binding to estrogen (IgG) [1, 10]: did not significantly absorb
IgG level after absorption ([1]; serum sample 1, before absorption 1.83): 1.53
IgG level after absorption ([1]; serum sample 2, before absorption 1.25): 0.95
IgG level after absorption ([1]; serum sample 3, before absorption 0.76): 0.54
IgE binding (optical density) ([2]; sample 1): 0.42
IgE % reaction ([2]; sample 1): −29%
IgE binding (optical density) ([2]; sample 2): 0.75
IgE % reaction ([2]; sample 2): −31%
IgE binding (optical density) ([2]; sample 3): 0.37
IgE % reaction ([2]; sample 3): −25%
inhibition of IgE anti-estrogen binding [3, 10]: did not significantly absorb
IgE level after absorption ([3]; serum sample 1, before absorption 2.15): 1.70
IgE level after absorption ([3]; serum sample 2, before absorption 1.66): 1.30
IgE level after absorption ([3]; serum sample 3, before absorption 1.34): 0.86
IgG anti-estrogen binding [4, 11]: 100%
IgG binding (optical density) ([4]; sample 1): 1.2
IgG % reaction ([4]; sample 1): −100%
IgG binding (optical density) ([4]; sample 2): 1.8
IgG % reaction ([4]; sample 2): −100%
IgG binding (optical density) ([4]; sample 3): 0.92
IgG % reaction ([4]; sample 3): −100%
IgM anti-estrogen binding [5, 11]: 100%
IgM binding (optical density) ([5]; sample 1): 0.9
IgM % reaction ([5]; sample 1): −100%
IgM binding (optical density) ([5]; sample 2): 2.1
IgM % reaction ([5]; sample 2): −100%
IgM binding (optical density) ([5]; sample 3): 1.3
IgM % reaction ([5]; sample 3): −100%
symptom relief in patients not relieved by progesterone treatment [6]: experience relief
IgG anti-17-α-hydroxyprogesterone binding ([7]; in comparison to 100% binding to 17-α-hydroxyprogesterone, over three sera): 25-30%
IgG binding (optical density) ([7]; sample 1): 0.48
IgG % reaction ([7]; sample 1): −30%
IgG binding (optical density) ([7]; sample 2): 0.24
IgG % reaction ([7]; sample 2): −25%
IgG binding (optical density) ([7]; sample 3): 0.18
IgM binding (optical density) ([8]; sample 1): 0.4
IgM % reaction ([8]; sample 1): −31%
IgM binding (optical density) ([8]; sample 2): 0.41
IgM % reaction ([8]; sample 2): −25%
IgM binding (optical density) ([8]; sample 3): 0.29
IgM % reaction ([8]; sample 3): −32%
IgE anti-estrogen binding [9, 11]: 100%
IgE binding (optical density) ([9]; sample 1): 0.8
IgE % reaction ([9]; sample 1): −100%
IgE binding (optical density) ([9]; sample 2): 1.5
IgE % reaction ([9]; sample 2): −100%
IgE binding (optical density) ([9]; sample 3): 1.6
IgE % reaction ([9]; sample 3): −100%
